This experiment deals with CD2F1 mice, P1798 lymphosarcoma sc, tumor weight T/C. Put plainly: NCI In Vivo Anticancer Drug Screen. Data for tumor model P1798 Lymphosarcoma (subcutaneous) in CD2F1 (CDF1) mice. The settings on record: endpoint: mean tumor weight, higher = larger tumour. Here is the method: The antitumor activity of compounds was measured in mice bearing transplantable tumors. Survival or tumor size were measured and the results are expressed as the measurement made in the treated group (T) divided by the measurement made in the vehicle treated control group (C). The tumor model used in this assay is P1798 Lymphosarcoma (subcutaneous) in CD2F1 (CDF1) mice

[1] abbreviates: dose: 100.0 mg/kg/injection, schedule: Q01DX010 (sc), vehicle: steriod suspending solution.
[2] abbreviates: dose: 200.0 mg/kg/injection, schedule: Q01DX010 (sc), vehicle: steriod suspending solution.
[3] abbreviates: dose: 400.0 mg/kg/injection, schedule: Q01DX010 (sc), vehicle: steriod suspending solution.
Where [4] appears, read: dose: 40.0 mg/kg/injection, schedule: Q01DX010 (ip), vehicle: saline.
[5] abbreviates: dose: 5.0 mg/kg/injection, schedule: Q01DX010 (ip), vehicle: saline.
[6] abbreviates: dose: 8.0 mg/kg/injection, schedule: Q01DX010 (ip), vehicle: saline.

One may read the T/C as the ratio of treated to control.

SMILES strings stand for the structures. Values joined by “and” are separate entries in the source; they are usually repeats but may differ in a detail not shown here. Equal entries are not always repeated.

For `CCC1=C(c2cc(Cl)c3ccccc3c2OCC(=O)O)OC(CC)(C(=O)c2cc(Cl)c3ccccc3c2OCC(=O)O)CC1` (stereo not drawn), the T/C (dose: 240.0 mg/kg/injection, schedule: Q01DX010 (ip), vehicle: steriod suspending solution) is 74 % of control and the T/C (dose: 480.0 mg/kg/injection, schedule: Q01DX010 (ip), vehicle: steriod suspending solution) is 80 % of control.

Take `O=c1ccc2ccccc2o1`: the T/C is, setting by setting: (dose: 110.0 mg/kg/injection, schedule: Q01DX011 (ip), vehicle: carboxymethylcellulose (CMC)) 69 % of control; (dose: 165.0 mg/kg/injection, schedule: Q01DX011 (ip), vehicle: carboxymethylcellulose (CMC)) 54 % of control.

Consider `CC(=O)[C@H]1CC[C@H]2[C@@H]3C[C@H](C)C4=CC(=O)CC[C@]4(C)[C@@]3(F)[C@@H](O)C[C@]12C`, for which the T/C (dose: 50.0 mg/kg/injection, schedule: Q01DX010 (sc), vehicle: steriod suspending solution) was 11 % of control; the T/C under setting [1] is 4 % of control; the T/C under setting [2] was 2 % of control; the T/C under setting [3] was 2 % of control.

Take `CC(=O)c1ccccc1C`: the T/C was 44 % of control (dose: 18.0 mg/kg/injection, schedule: Q01DX010 (ip), vehicle: saline); 42 % of control (dose: 27.0 mg/kg/injection, schedule: Q01DX010 (ip), vehicle: saline); 42 % of control under setting [4].

Regarding `CC(=O)O[C@]1(C(C)=O)CC[C@H]2[C@@H]3C[C@H](C)C4=CC(=O)C=C[C@]4(C)[C@@]3(F)[C@@H](O)C[C@@]21C`, the T/C reads like this: (dose: 12.5 mg/kg/injection, schedule: Q01DX005 (sc), vehicle: steriod suspending solution) 32 % of control; (dose: 12.5 mg/kg/injection, schedule: Q01DX010 (sc), vehicle: steriod suspending solution) 37 % of control and 39 % of control; (dose: 25.0 mg/kg/injection, schedule: Q01DX005 (sc), vehicle: steriod suspending solution) 13 % of control; (dose: 25.0 mg/kg/injection, schedule: Q01DX010 (sc), vehicle: steriod suspending solution) 15 % of control and 16 % of control and 36 % of control; (dose: 25.0 mg/kg/injection, schedule: Q02DX010 (sc), vehicle: steriod suspending solution) 105 % of control; (dose: 50.0 mg/kg/injection, schedule: Q01DX005 (sc), vehicle: steriod suspending solution) 1 % of control. For the same compound, the T/C was 101 % of control (dose: 50.0 mg/kg/injection, schedule: Q02DX010 (sc), vehicle: steriod suspending solution); 3 % of control (dose: 100.0 mg/kg/injection, schedule: Q01DX005 (sc), vehicle: steriod suspending solution); 105 % of control (dose: 100.0 mg/kg/injection, schedule: Q02DX010 (sc), vehicle: steriod suspending solution).

`C[C@]12CC[C@@H]3c4ccccc4CC[C@H]3[C@@H]1CC[C@@H]2O`: the T/C is 94 % of control under setting [1]; 74 % of control under setting [2]; 33 % of control under setting [3]; 7 % of control (dose: 800.0 mg/kg/injection, schedule: Q01DX010 (sc), vehicle: steriod suspending solution).

Take `CC(=O)OCC(=O)[C@@]1(O)CC[C@H]2[C@@H]3CCC4=CC(=O)C=C[C@]4(C)[C@H]3[C@@H](O)C[C@@]21C`: the T/C reads like this: (dose: 2.5 mg/kg/injection, schedule: Q01DX Z (sc), vehicle: steriod suspending solution) 92 % of control; (dose: 5.0 mg/kg/injection, schedule: Q01DX010 (sc), vehicle: steriod suspending solution) 20 % of control; (dose: 5.0 mg/kg/injection, schedule: Q01DX Z (sc), vehicle: steriod suspending solution) 107 % of control; (dose: 10.0 mg/kg/injection, schedule: Q01DX010 (sc), vehicle: steriod suspending solution) 4 % of control; (dose: 10.0 mg/kg/injection, schedule: Q01DX Z (sc), vehicle: steriod suspending solution) 100 % of control and 88 % of control; (dose: 20.0 mg/kg/injection, schedule: Q01DX010 (sc), vehicle: steriod suspending solution) 5 % of control. The T/C runs as follows: (dose: 20.0 mg/kg/injection, schedule: Q01DX Z (sc), vehicle: steriod suspending solution) 119 % of control; (dose: 40.0 mg/kg/injection, schedule: Q01DX010 (sc), vehicle: steriod suspending solution) 5 % of control; (dose: 40.0 mg/kg/injection, schedule: Q01DX Z (sc), vehicle: steriod suspending solution) 77 % of control; (dose: 80.0 mg/kg/injection, schedule: Q01DX Z (sc), vehicle: steriod suspending solution) 57 % of control.

In the case of `CN(C)c1ccc(/C=C/c2ccnc3ccccc23)cc1`, the T/C is 59 % of control under setting [5]; 39 % of control and 46 % of control (dose: 20.0 mg/kg/injection, schedule: Q01DX010 (ip), vehicle: saline); 30 % of control and 38 % of control under setting [4].

For `CC(=O)OC(C)(C)/C=C/C(=O)[C@](C)(O)[C@H]1[C@H](O)C[C@@]2(C)[C@@H]3CC=C4[C@@H](C[C@H](O)C(=O)C4(C)C)[C@]3(C)C(=O)C[C@]12C`, the T/C runs as follows: (dose: 0.1 mg/kg/injection, schedule: Q01DX009 (ip), vehicle: saline) 99 % of control; (dose: 0.16 mg/kg/injection, schedule: Q01DX010 (ip), vehicle: saline) 71 % of control; (dose: 0.2 mg/kg/injection, schedule: Q01DX009 (ip), vehicle: saline) 68 % of control; (dose: 0.2 mg/kg/injection, schedule: Q01DX011 (ip), vehicle: carboxymethylcellulose (CMC)) 106 % of control; (dose: 0.25 mg/kg/injection, schedule: Q01DX010 (ip), vehicle: saline) 70 % of control; (dose: 0.3 mg/kg/injection, schedule: Q01DX011 (ip), vehicle: carboxymethylcellulose (CMC)) 56 % of control. Further, the T/C (dose: 0.38 mg/kg/injection, schedule: Q01DX010 (ip), vehicle: saline) was 70 % of control; the T/C (dose: 0.4 mg/kg/injection, schedule: Q01DX009 (ip), vehicle: saline) is 77 % of control; the T/C (dose: 0.57 mg/kg/injection, schedule: Q01DX010 (ip), vehicle: saline) is 62 % of control; the T/C (dose: 0.6 mg/kg/injection, schedule: Q01DX011 (ip), vehicle: carboxymethylcellulose (CMC)) is 82 % of control; the T/C (dose: 0.8 mg/kg/injection, schedule: Q01DX011 (ip), vehicle: carboxymethylcellulose (CMC)) was 11 % of control.

Turning to `N#Cc1ccc(S(N)(=O)=O)cc1`, the T/C reads like this: (dose: 22.0 mg/kg/injection, schedule: Q01DX010 (ip), vehicle: saline) 70 % of control; (dose: 33.0 mg/kg/injection, schedule: Q01DX010 (ip), vehicle: saline) 54 % of control; (dose: 49.0 mg/kg/injection, schedule: Q01DX010 (ip), vehicle: saline) 67 % of control; (dose: 73.0 mg/kg/injection, schedule: Q01DX010 (ip), vehicle: saline) 35 % of control.

Turning to `CN1CC[C@]23c4c5ccc(O)c4O[C@H]2C(=O)CC[C@H]3[C@H]1C5`, the T/C runs as follows: under setting [6], 94 % of control and 80 % of control; (dose: 16.0 mg/kg/injection, schedule: Q01DX010 (ip), vehicle: saline) 76 % of control and 79 % of control; (dose: 32.0 mg/kg/injection, schedule: Q01DX010 (ip), vehicle: saline) 74 % of control and 85 % of control; (dose: 64.0 mg/kg/injection, schedule: Q01DX010 (ip), vehicle: saline) 93 % of control and 70 % of control.

Turning to `O=C(NCCCCC(NC(=O)c1ccccc1)C(=O)NCCCCCCCCCCNC(=O)C(CCCCNC(=O)c1ccccc1)NC(=O)c1ccccc1)c1ccccc1` (stereo not drawn), the T/C (dose: 12.5 mg/kg/injection, schedule: Q01DX010 (ip), vehicle: saline) is 85 % of control; the T/C (dose: 25.0 mg/kg/injection, schedule: Q01DX010 (ip), vehicle: saline) was 93 % of control; the T/C (dose: 50.0 mg/kg/injection, schedule: Q01DX010 (ip), vehicle: saline) was 86 % of control; the T/C (dose: 100.0 mg/kg/injection, schedule: Q01DX010 (ip), vehicle: saline) was 90 % of control.

As for `CN(C)CC(=O)c1ccc(O)c(O)c1`, the T/C is 122 % of control (dose: 200.0 mg/kg/injection, schedule: Q01DX010 (ip), vehicle: saline); 105 % of control (dose: 300.0 mg/kg/injection, schedule: Q01DX010 (ip), vehicle: saline); 72 % of control (dose: 450.0 mg/kg/injection, schedule: Q01DX010 (ip), vehicle: saline); 80 % of control (dose: 675.0 mg/kg/injection, schedule: Q01DX010 (ip), vehicle: saline).

Consider `c1ccc(COCC[P+](c2ccccc2)(c2ccccc2)c2ccccc2)cc1`, for which the T/C was 76 % of control (dose: 3.0 mg/kg/injection, schedule: Q01DX010 (ip), vehicle: saline); 98 % of control under setting [5]; 88 % of control under setting [6]; 33 % of control (dose: 12.0 mg/kg/injection, schedule: Q01DX010 (ip), vehicle: saline).

The record behind these values is PubChem BioAssay AID268 (DTP/NCI, 2004).
